According to patent US11136296B2, “Substituted N-arylethyl-2-arylquinoline-4-carboxamides and use thereof” (Bayer Aktiengesellschaft, priority 2017, dated 2021):

target: FP receptor (Homo sapiens (Human), UniProt P43088); experiment: In vitro test of inhibition of human FP receptor activity (PGF2α-induced calcium flux in FP-expressing CHEM1 cells); format: cell-based; settings: PGF2α-induced (2 nM) calcium flux in FP-expressing CHEM1 cells; some as mean values from multiple determinations
From the text: Table 1 below lists the IC50 values from this assay for individual working examples of the invention (some as mean values from multiple independent individual determinations): […]

Chain of FP receptor (P43088 whole entry): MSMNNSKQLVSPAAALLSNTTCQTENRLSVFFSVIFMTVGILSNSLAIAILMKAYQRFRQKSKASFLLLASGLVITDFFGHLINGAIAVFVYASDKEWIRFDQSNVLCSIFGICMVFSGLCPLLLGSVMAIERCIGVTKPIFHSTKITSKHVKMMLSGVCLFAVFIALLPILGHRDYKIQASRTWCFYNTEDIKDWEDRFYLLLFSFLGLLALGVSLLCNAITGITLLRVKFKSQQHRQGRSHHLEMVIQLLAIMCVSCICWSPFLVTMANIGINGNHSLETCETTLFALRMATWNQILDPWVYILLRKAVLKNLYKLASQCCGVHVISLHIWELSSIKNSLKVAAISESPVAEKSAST

| IC50 | Structure (SMILES) |
| --- | --- |
| 150 nM | Cc1c(-c2ccccc2)nc2ccc(Br)cc2c1C(=O)NCC(OCC(=O)O)c1ccccc1Cl (single isomer, unassigned; (-)) [Example 193, (−)-[2-{[(6-Bromo-3-methyl-2-phenylquinolin-4-yl)carbonyl]amino}-1-(2-chlorophenyl)ethoxy]acetic Acid] |
| 13 nM | Cc1ccccc1C(CCC(=O)O)CNC(=O)c1c(C)c(-c2ccccc2)nc2ccc(Br)cc12 (racemic) [Example 160, (+/−)-5-{[(6-Bromo-3-methyl-2-phenylquinolin-4-yl)carbonyl]amino}-4-(2-methylphenyl)pentanoic Acid] |
| 3.6 nM | Cc1c(-c2ccccc2)nc2ccc(Br)cc2c1C(=O)NCC(CCC(=O)O)c1c(Cl)ccc(F)c1F (racemic) [Example 200, (+/−)-5-{[(6-Bromo-3-methyl-2-phenylquinolin-4-yl)carbonyl]amino}-4-(6-chloro-2,3-difluorophenyl)pentanoic Acid] |
| 4.4 nM | O=C(O)CCC(CNC(=O)c1c(Cl)c(-c2ccccc2)nc2ccc(Br)cc12)c1ccccc1Cl (single isomer, unassigned; (+)) [Example 214, (+)-5-{[(6-Bromo-3-chloro-2-phenylquinolin-4-yl)carbonyl]amino}-4-(2-chlorophenyl)pentanoic Acid] |
| 62 nM | Cc1c(-c2ccccc2)nc2ccc(Br)cc2c1C(=O)NCC(c1ccccc1Cl)C(C)(C)C(=O)O (single isomer, unassigned) [Example 113, 4-{[(6-Bromo-3-methyl-2-phenylquinolin-4-yl)carbonyl]amino}-3-(2-chlorophenyl)-2,2-dimethylbutanoic Acid] |
| 32 nM | Cc1c(-c2ccccc2)nc2ccc(Br)cc2c1C(=O)NCC(CCC(=O)O)c1c(Cl)ccc(Cl)c1Cl (single isomer, unassigned; (+)) [Example 235, (+)-5-{[(6-Bromo-3-methyl-2-phenylquinolin-4-yl)carbonyl]amino}-4-(2,3,6-trichlorophenyl)pentanoic Acid] |
| 6.6 nM | O=C(O)CCC(CNC(=O)c1c(Cl)c(-c2ccccc2)nc2ccc(Br)cc12)c1ccccc1Cl (racemic) [Example 212, (+/−)-5-{[(6-Bromo-3-chloro-2-phenylquinolin-4-yl)carbonyl]amino}-4-(2-chlorophenyl)pentanoic Acid] |
| 1.8 nM | Cc1c(-c2ccccc2)nc2ccc(Br)cc2c1C(=O)NCC(CCC(=O)O)c1ccccc1OC(F)(F)F (racemic) [Example 209, (+/−)-5-{[(6-Bromo-3-methyl-2-phenylquinolin-4-yl)carbonyl]amino}-4-[2-(trifluoromethoxy)phenyl]pentanoic Acid] |
| 2.4 nM | O=C(O)CCC(CNC(=O)c1c(Cl)c(-c2ccccc2)nc2ccc(Br)cc12)c1c(F)ccc(F)c1Cl (racemic) [Example 221, (+/−)-5-{[(6-Bromo-3-chloro-2-phenylquinolin-4-yl)carbonyl]amino}-4-(2-chloro-3,6-difluorophenyl)pentanoic Acid] |
| 11 nM | Cc1ccc(F)cc1C(CCC(=O)O)CNC(=O)c1c(C)c(-c2ccccc2)nc2ccc(Br)cc12 (single isomer, unassigned; (+)) [Example 208, (+)-5-{[(6-Bromo-3-methyl-2-phenylquinolin-4-yl)carbonyl]amino}-4-(5-fluoro-2-methylphenyl)pentanoic Acid] |
| 24 nM | Cc1c(-c2ccccc2)nc2ccc(Br)cc2c1C(=O)NCC(CCC(=O)O)c1c(F)cccc1Cl (single isomer, unassigned; (+)) [Example 159, (+)-5-{[(6-Bromo-3-methyl-2-phenylquinolin-4-yl)carbonyl]amino}-4-(2-chloro-6-fluorophenyl)pentanoic Acid] |

The remaining lines, values behind:

| Structure (SMILES) | IC50 |
| --- | --- |
| COc1ccccc1C(O)(CNC(=O)c1c(C)c(-c2ccccc2)nc2ccc(Br)cc12)C(=O)O (racemic) [Example 53, (+/−)-3-{[(6-Bromo-3-methyl-2-phenylquinolin-4-yl)carbonyl]amino}-2-hydroxy-2-(2-methoxyphenyl)propanoic Acid] | 180 nM |
| COc1cccc(F)c1C(CNC(=O)c1c(C)c(-c2ccccc2)nc2ccc(Br)cc12)C(=O)O (single isomer, unassigned; (+)) [Example 58, (+)-3-{[(6-Bromo-3-methyl-2-phenylquinolin-4-yl)carbonyl]amino}-2-(2-fluoro-6-methoxyphenyl)propanoic Acid] | 9.7 nM |
| Cc1c(-c2ccccc2)nc2ccc(Br)cc2c1C(=O)NCC(C(=O)O)c1ccc2c(c1)OCO2 (single isomer, unassigned) [Example 24, 2-(1,3-Benzodioxol-5-yl)-3-{[(6-bromo-3-methyl-2-phenylquinolin-4-yl)carbonyl]amino}propanoic Acid] | 580 nM |
| Cc1c(-c2ccccc2)nc2ccc(Br)cc2c1C(=O)NCC(C)(CCC(=O)O)c1ccccc1Cl (racemic) [Example 154, (+/−)-5-{[(6-Bromo-3-methyl-2-phenylquinolin-4-yl)carbonyl]amino}-4-(2-chlorophenyl)-4-methylpentanoic Acid] | 15 nM |
| COc1cccnc1C(CNC(=O)c1c(C)c(-c2ccccc2)nc2ccc(Br)cc12)CC(=O)O (racemic) [Example 108, (+/−)-4-{[(6-Bromo-3-methyl-2-phenylquinolin-4-yl)carbonyl]amino}-3-(3-methoxypyridin-2-yl)butanoic Acid] | 78 nM |
| COc1ccccc1C(C)(CNC(=O)c1c(C)c(-c2ccccc2)nc2ccc(Br)cc12)C(=O)O (single isomer, unassigned; (-)) [Example 59, (−)-3-{[(6-Bromo-3-methyl-2-phenylquinolin-4-yl)carbonyl]amino}-2-(2-methoxyphenyl)-2-methylpropanoic Acid] | 390 nM |
| Cc1ccc(C(CNC(=O)c2c(C)c(-c3ccccc3)nc3ccc(Br)cc23)CC(=O)O)cc1 (single isomer, unassigned; (-)) [Example 92, (−)-4-{[(6-Bromo-3-methyl-2-phenylquinolin-4-yl)carbonyl]amino}-3-(4-methylphenyl)butanoic Acid] | 320 nM |
| COc1ccc(F)cc1C(CNC(=O)c1c(C)c(-c2ccccc2)nc2ccc(Br)cc12)CC(=O)O (racemic) [Example 123, (+/−)-4-{[(6-Bromo-3-methyl-2-phenylquinolin-4-yl)carbonyl]amino}-3-(5-fluoro-2-methoxyphenyl)butanoic Acid] | 11 nM |
| Cc1c(-c2ccccc2)nc2ccc(Br)cc2c1C(=O)NCC(C(=O)O)c1ccc(F)cc1 (single isomer, unassigned) [Example 11, 3-{[(6-Bromo-3-methyl-2-phenylquinolin-4-yl)carbonyl]amino}-2-(4-fluorophenyl)propanoic Acid] | 470 nM |
| Cc1c(-c2ccccc2)nc2ccc(Br)cc2c1C(=O)NCC(CC(=O)O)c1c(F)cccc1Cl (single isomer, unassigned; (-)) [Example 88, (−)-4-{[(6-Bromo-3-methyl-2-phenylquinolin-4-yl)carbonyl]amino}-3-(2-chloro-6-fluorophenyl)butanoic Acid] | 19 nM |
| Cc1c(-c2ccccc2)nc2ccc(Br)cc2c1C(=O)NCC(C)(C(=O)O)c1ccccc1Cl (single isomer, unassigned; (+)) [Example 37, (+)-3-{[(6-Bromo-3-methyl-2-phenylquinolin-4-yl)carbonyl]amino}-2-(2-chlorophenyl)-2-methylpropanoic Acid] | 160 nM |
| COc1c(F)cc(F)cc1C(C)(CNC(=O)c1c(C)c(-c2ccccc2)nc2ccc(Br)cc12)CC(=O)O (single isomer, unassigned; (+)) [Example 136, (+)-4-{[(6-Bromo-3-methyl-2-phenylquinolin-4-yl)carbonyl]amino}-3-(3,5-difluoro-2-methoxyphenyl)-3-methylbutanoic Acid] | 13 nM |
| Cc1c(-c2ccccc2)nc2ccc(Br)cc2c1C(=O)NCC(C)(C(=O)O)c1cccc(C(F)(F)F)c1 (single isomer, unassigned; (+)) [Example 43, (+)-3-{[(6-Bromo-3-methyl-2-phenylquinolin-4-yl)carbonyl]amino}-2-methyl-2-[3-(trifluoromethyl)phenyl]propanoic Acid] | 140 nM |
| Cc1c(-c2ccccc2)nc2ccc(Br)cc2c1C(=O)NCC(C)(C(=O)O)c1c(F)cccc1Cl (single isomer, unassigned; (-)) [Example 62, (−)-3-{[(6-Bromo-3-methyl-2-phenylquinolin-4-yl)carbonyl]amino}-2-(2-chloro-6-fluorophenyl)-2-methylpropanoic Acid] | 43 nM |
| Cc1c(-c2ccccc2)nc2ccc(Br)cc2c1C(=O)NCC(C)(C(=O)O)c1ccccc1F (racemic) [Example 29, (+/−)-3-{[(6-Bromo-3-methyl-2-phenylquinolin-4-yl)carbonyl]amino}-2-(2-fluorophenyl)-2-methylpropanoic Acid] | 140 nM |
| CCC(CNC(=O)c1c(C)c(-c2ccccc2)nc2ccc(Br)cc12)(C(=O)O)c1ccccc1 (single isomer, unassigned; (+)) [Example 18, (+)-2-({[(6-Bromo-3-methyl-2-phenylquinolin-4-yl)carbonyl]amino}methyl)-2-phenylbutanoic Acid] | 120 nM |
| COc1ccccc1C(O)(CNC(=O)c1c(C)c(-c2ccccc2)nc2ccc(Br)cc12)C(=O)O (single isomer, unassigned; (-)) [Example 54, (−)-3-{[(6-Bromo-3-methyl-2-phenylquinolin-4-yl)carbonyl]amino}-2-hydroxy-2-(2-methoxyphenyl)propanoic Acid] | 500 nM |
| COc1ccccc1C(C)(CNC(=O)c1c(C)c(-c2ccccc2)nc2ccc(Br)cc12)CC(=O)O (single isomer, unassigned; (-)) [Example 122, (−)-4-{[(6-Bromo-3-methyl-2-phenylquinolin-4-yl)carbonyl]amino}-3-(2-methoxyphenyl)-3-methylbutanoic Acid] | 460 nM |
| Cc1c(-c2ccccc2)nc2ccc(Br)cc2c1C(=O)NCC(C)(CCC(=O)O)c1ccccc1Cl (single isomer, unassigned; (-)) [Example 155, (−)-5-{[(6-Bromo-3-methyl-2-phenylquinolin-4-yl)carbonyl]amino}-4-(2-chlorophenyl)-4-methylpentanoic Acid] | 60 nM |
